In US8546389B2 (priority 2010, dated 2013):
pEC50, pIC50: −log10 of the molar value.

Columns and labels:
[1] = biological target: 1b (BK) NS5bΔ21 (Hepatitis C virus genotype 1b (isolate BK) (HCV), UniProt P26663); assay: HCV polymerase inhibition assay, genotype 1b; format: biochemical, HCV genotype 1b (BK); conditions: 1b (BK) NS5bΔ21, 33P-GTP incorporation; read-out: 1b polymerase IC50 (range class)
Outline: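 Both genotype 1b and 3a enzymes assayed identically: ^33P-GTP incorporation on poly(rC) template, GTP at Km, 50 nM NS5bΔ21, pH 7.5 Tris with 5 mM MgCl2 and MnCl2, 1 h reaction ended by cold EDTA. Filter-bound label counted; IC50 fitted by non-linear regression across three-fold dilution series.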

[2] = tested on: genotype 1b (Con 1) subgenomic replicon cell line; assay: HCV replicon assay, genotype 1b (Renilla luciferase); format: cell-based, HCV genotype 1b (Con 1); conditions: Hepatitis C virus; genotype 1b replicon, 72 hours, luciferase; read-out: genotype 1b EC50 (range class)
Outline: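 Subgenomic replicon cells expressing Renilla luciferase (1b Con1; 1a and 2a lines by the same method) seeded at 7000 cells/well (5000 for 2a) without G418, exposed to 3-fold compound dilutions for 72 h at 37 °C. Luciferase activity measured; EC50 by non-linear regression.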

1b (BK) NS5bΔ21, sequence (P26663 2420-2989): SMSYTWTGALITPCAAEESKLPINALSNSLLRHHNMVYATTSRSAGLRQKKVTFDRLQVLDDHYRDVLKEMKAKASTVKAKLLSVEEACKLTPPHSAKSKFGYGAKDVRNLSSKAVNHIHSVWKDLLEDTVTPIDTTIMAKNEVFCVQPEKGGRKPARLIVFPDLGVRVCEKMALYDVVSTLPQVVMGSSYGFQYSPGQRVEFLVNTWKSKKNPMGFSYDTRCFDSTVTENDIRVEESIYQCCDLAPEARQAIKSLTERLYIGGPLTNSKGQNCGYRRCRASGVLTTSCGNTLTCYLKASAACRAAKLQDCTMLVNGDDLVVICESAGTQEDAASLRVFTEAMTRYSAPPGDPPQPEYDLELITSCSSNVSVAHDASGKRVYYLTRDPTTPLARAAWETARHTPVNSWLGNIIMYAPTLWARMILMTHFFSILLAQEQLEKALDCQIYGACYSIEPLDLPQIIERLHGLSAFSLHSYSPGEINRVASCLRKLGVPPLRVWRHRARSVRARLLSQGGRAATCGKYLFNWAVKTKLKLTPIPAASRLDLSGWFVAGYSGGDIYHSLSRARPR

Structure (SMILES) | pIC50 [1] | pEC50 [2]
CNC(=O)c1c2cc(C3CC3)c(N(CCCNC(=O)c3cnoc3C)S(C)(=O)=O)cc2nn1-c1ccc(Br)cc1 [Compound 173] | > 6.00 | > 6.00
CNC(=O)c1c2cc(C3CC3)c(N(CCCNC(=O)c3ccnnc3)S(C)(=O)=O)cc2nn1-c1ccc(Br)cc1 [Compound 178] | > 6.00 | 5.00 to 6.00
CNC(=O)c1c2cc(C3CC3)c(N(CCCNC(=O)c3ccco3)S(C)(=O)=O)cc2nn1-c1ccc(Br)cc1 [Compound 181] | > 6.00 | > 6.00
CNC(=O)c1c2cc(C3CC3)c(N(CCCNC(=O)C3CC3)S(C)(=O)=O)cc2nn1-c1ccc(Br)cc1 [Compound 183] | > 6.00 | > 6.00
CCNC(=O)CCCN(c1cc2nn(-c3ccc(Br)cc3)c(C(=O)NC)c2cc1C1CC1)S(C)(=O)=O [Compound 184] | > 6.00 | 5.00 to 6.00
CNC(=O)c1c2cc(C3CC3)c(N(CCCNC(=O)CCN(C)C)S(C)(=O)=O)cc2nn1-c1ccc(Br)cc1 [Compound 185] | 5.00 to 6.00 | 5.00 to 6.00
CNC(=O)c1c2cc(C3CC3)c(N(CCCNC(=O)c3ccc(N4CCOCC4)nc3)S(C)(=O)=O)cc2nn1-c1ccc(Br)cc1 [Compound 186] | > 6.00 | > 6.00
CNC(=O)c1c2cc(C3CC3)c(N(CCCNC(=O)[C@H]3CCCC[C@@H]3C(=O)O)S(C)(=O)=O)cc2nn1-c1ccc(Br)cc1 [Compound 187] | > 6.00 | 5.00 to 6.00
CNC(=O)c1c2cc(C3CC3)c(N(CCCNC(=O)[C@H]3CC=CC[C@H]3C(=O)O)S(C)(=O)=O)cc2nn1-c1ccc(Br)cc1 [Compound 188] | > 6.00 | > 6.00
C=C(C)c1ccc(-n2nc3cc(N(CC)S(C)(=O)=O)c(C4CC4)cc3c2C(=O)NC)cc1 [Compound 192] | 5.00 to 6.00 | > 6.00
CCS(=O)(=O)NC(=O)CCCN(c1cc2nn(-c3ccc(Br)cc3)c(C(=O)NC)c2cc1C1CC1)S(C)(=O)=O [Compound 193] | > 6.00 | 5.00 to 6.00
CNC(=O)c1c2cc(C3CC3)c(N(CCCN3CCCC3=O)S(C)(=O)=O)cc2nn1-c1ccc(Br)cc1 [Compound 194] | > 6.00 | > 6.00
CNC(=O)c1c2cc(C3CC3)c(N(CCCC(=O)NS(=O)(=O)C(F)(F)F)S(C)(=O)=O)cc2nn1-c1ccc(Br)cc1 [Compound 196] | > 6.00 | 5.00 to 6.00
CNC(=O)c1c2cc(C3CC3)c(N(CCCNC(=O)c3ccccc3)S(C)(=O)=O)cc2nn1-c1ccc(Cl)cc1 [Compound 197] | > 6.00 | > 6.00
CNC(=O)c1c2cc(C3CC3)c(N(CCCC(=O)NS(=O)(=O)N(C)C)S(C)(=O)=O)cc2nn1-c1ccc(Br)cc1 [Compound 198] | > 6.00 | 5.00 to 6.00
CNC(=O)c1c2cc(C3CC3)c(N(CCCN(C)C)S(C)(=O)=O)cc2nn1-c1ccc(Cl)cc1 [Compound 199] | 5.00 to 6.00 | > 6.00
CNC(=O)c1c2cc(C3CC3)c(N(CCCN3CCOCC3)S(C)(=O)=O)cc2nn1-c1ccc(Cl)cc1 [Compound 201] | > 6.00 | > 6.00
CNC(=O)c1c2cc(C3CC3)c(N(CC3COC(C)(C)OC3)S(C)(=O)=O)cc2nn1-c1ccc(Br)cc1 [Compound 202] | > 6.00 | > 6.00
CNC(=O)c1c2cc(C3CC3)c(N(CC(CO)CO)S(C)(=O)=O)cc2nn1-c1ccc(Br)cc1 [Compound 203] | 4.30 to 5.00 | 4.30 to 5.00
CNC(=O)c1c2cc(C3CC3)c(N(CCCNC(=O)[C@H]3C[C@H]3C(=O)OC)S(C)(=O)=O)cc2nn1-c1ccc(Br)cc1 [Compound 204] | > 6.00 | > 6.00
CNC(=O)c1c2cc(C3CC3)c(N(CCCNC(=O)[C@H]3COCCN3C)S(C)(=O)=O)cc2nn1-c1ccc(Cl)cc1 [Compound 205] | > 6.00 | > 6.00
CNC(=O)c1c2cc(C3CC3)c(N(CCCO)S(C)(=O)=O)cc2nn1-c1ccc(C)c(F)c1 [Compound 206] | > 6.00 | > 6.00
CNC(=O)c1c2cc(C3CC3)c(N(CCCC(=O)OC)S(C)(=O)=O)cc2nn1-c1ccc(Cl)cc1 [Compound 207] | > 6.00 | 5.00 to 6.00
CNC(=O)c1c2cc(C3CC3)c(N(CCCC(=O)O)S(C)(=O)=O)cc2nn1-c1ccc(Cl)cc1 [Compound 208] | > 6.00 | 4.30 to 5.00
CNC(=O)c1c2cc(C3CC3)c(N(CCCN3C(=O)[C@H]4CCCC[C@H]4C3=O)S(C)(=O)=O)cc2nn1-c1ccc(Br)cc1 [Compound 209] | > 6.00 | > 6.00
CNC(=O)c1c2cc(C3CC3)c(N(CCCNCc3ccc(OC)cc3)S(C)(=O)=O)cc2nn1-c1ccc(Br)cc1 [Compound 210] | 5.00 to 6.00 | 5.00 to 6.00
CNC(=O)c1c2cc(C3CC3)c(N(CCCNCc3cccnc3)S(C)(=O)=O)cc2nn1-c1ccc(Br)cc1 [Compound 211] | > 6.00 | 5.00 to 6.00
